# Laboratory results taken from US6423519B1, “Compositions and methods for inhibiting fungal growth” (GPC Biotech Inc., priority 1998, dated 2002).
# Where two headings read alike, the source gives them in different places. Peptide text beside a SMILES is read from it.
# What was measured:
# C. albicans GGPTase = molecular target: T1, C. albicans GGPTase (Candida albicans, UniProt Q8J224+Q9Y764); experiment: biochemical
# T1 sequence (Q9Y764 1-398): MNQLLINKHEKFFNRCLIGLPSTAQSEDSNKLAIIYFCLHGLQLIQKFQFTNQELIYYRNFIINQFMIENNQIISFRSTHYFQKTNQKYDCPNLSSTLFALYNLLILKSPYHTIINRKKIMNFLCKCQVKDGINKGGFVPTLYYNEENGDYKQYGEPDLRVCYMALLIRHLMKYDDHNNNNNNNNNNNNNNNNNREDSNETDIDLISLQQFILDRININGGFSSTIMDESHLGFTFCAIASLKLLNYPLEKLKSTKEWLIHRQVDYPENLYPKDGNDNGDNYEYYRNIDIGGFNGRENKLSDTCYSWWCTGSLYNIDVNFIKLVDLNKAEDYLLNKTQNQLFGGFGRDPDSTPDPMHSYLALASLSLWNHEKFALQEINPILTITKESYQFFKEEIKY
# T1 sequence (Q8J224 1-306): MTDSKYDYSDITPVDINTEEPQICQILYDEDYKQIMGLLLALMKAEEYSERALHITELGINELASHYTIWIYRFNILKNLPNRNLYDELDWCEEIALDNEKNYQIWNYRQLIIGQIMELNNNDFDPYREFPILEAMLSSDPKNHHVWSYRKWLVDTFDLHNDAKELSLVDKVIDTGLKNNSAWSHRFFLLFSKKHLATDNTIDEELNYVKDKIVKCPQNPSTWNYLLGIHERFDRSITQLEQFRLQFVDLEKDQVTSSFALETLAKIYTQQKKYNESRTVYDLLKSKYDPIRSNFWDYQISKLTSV
# Protocol: Plate test compounds (10 μL per well) at predetermined concentration in 50% DMSO. For background control (blank) and reaction control (negative), add 10 μL of 200 μM GGPP and 10 μL 50% DMSO, respectively. Prepare assay buffer: 50 mM Tris, pH7.5, 20 mM KCL, 5 mM MgCl2, 5 μM ZnCl2, 0.5 mM Zw(3-14), 2 mM DTT and 0.1 mg/mL BSA.
# Add 20 μL of C. albicans GGPTase and ^3H-GGPP in assay buffer to test compound. Preincubate enzyme and ^3H-GGPP with test compound for 15 minutes at room temperature. Add 20 μL C. albicans Rho in assay buffer. Incubate for 30 minutes at room temperature. Final assay conditions are 2 nM C. albicans GGPTase, 250 nM ^3H-GGPP and 250 nM C. albicans Rho.
# Add 100 μL 15 mM GGPP, 50 mM Tris, pH7.0 and 2% BSA to quench reaction. Transfer reaction to Nickel chelate FlashPlate. Allow his-tagged C. albcians Rho to capture onto plate. Rinse plate 1× with 200 μL 20 mM Tris, pH7.0. Read in TOPCOUNT.
# human GGTase = human GGTase (Homo sapiens, UniProt P53609); experiment: Human GGTase inhibition (Hu GG); type: biochemical
# Description: As described below, a variety of different compounds were synthesized and tested for inhibitory activity against human and Candida GGTase. Exemplary synthesis schemes for generating prenyltransferase inhibitors useful in the methods and compositions of the present invention are shown in FIGS. 1-56. Tables 1-5 provide Structure-Activity relationship (SAR) data for several different classes of prenyltransferase inhibitors.
# Hu FT = Hu FT (Homo sapiens, UniProt P49356); experiment: Human FT inhibition (Hu FT); type: biochemical; details: Table 3 Piperidine Analogs
# [1] = Table 3 Piperidine Analogs, read-out: IC50 (nM) Ca GG
# [2] = Table 3 Piperidine Analogs, read-out: IC50 (nM) Hu GG
# [3] = Table 1, read-out: IC50 (nM) Hu GG
# [4] = Table 1 Peptide Analogs, read-out: IC50 (nM) Hu GG
# [5] = read-out: IC50 (nM) Ca GG, Table 1
# [6] = Table 1, read-out: IC50 (nM) Ca GG
# [7] = Table 1 Peptide Analogs, read-out: IC50 (nM) Ca GG
# [8] = Table 5, read-out: IC50 (nM) Candida
# [9] = Table 5, read-out: IC50 (nM) Human
SMILES,IC50 (C. albicans GGPTase; [1]),IC50 (human GGTase; [2]),IC50 (C. albicans GGPTase),IC50 (human GGTase; [3]),IC50 (human GGTase; [4]),also measured
N[C@@H](CS)C(=O)N1CCC(C(=O)N[C@@H]2C[C@H]2c2ccccc2)(c2ccccc2)CC1 (relative stereo) [Compound 53v],< 10 nM,> 1000 nM,–,–,–,IC50 (Hu FT): > 1000 nM
CC(C)C[C@H](NC(=O)[C@H](Cc1cccc2ccccc12)NC(=O)[C@H](CCO)NC(=O)[C@@H](N)CS)C(=O)O [Compound 5a] (HELM PEPTIDE1{C.[O=C([C@H](CCO)N[*:1])[*:2]].[O=C([C@H](Cc1cccc2ccccc12)N[*:1])[*:2]].L}$$$$V2.0),–,–,< 500 nM,< 500 nM,< 500 nM,–
CC(C)C[C@H](NC(=O)[C@H](Cc1cccc2ccccc12)NC(=O)[C@H](CN)NC(=O)[C@@H](N)CS)C(=O)O [Compound 5b] (HELM PEPTIDE1{C.[NC[C@H](N[*:1])C(=O)[*:2]].[O=C([C@H](Cc1cccc2ccccc12)N[*:1])[*:2]].L}$$$$V2.0),–,–,< 10 nM,< 500 nM,< 500 nM,IC50 (C. albicans GGPTase; [5]): < 10 nM
"CC(C)C[C@H](NC(=O)[C@H](Cc1cccc2ccccc12)NC(=O)[C@@H](N)CNC(=O)[C@@H](N)CS)C(=O)O [Compound 5c] (HELM PEPTIDE1{[N[C@@H](CN[*:3])C(=O)[*:2]].[O=C([C@H](Cc1cccc2ccccc12)N[*:1])[*:2]].L}|PEPTIDE2{C}$PEPTIDE1,PEPTIDE2,1:R3-1:R2$$$V2.0)",–,–,–,> 1000 nM,> 1000 nM,IC50 (C. albicans GGPTase; [6]): < 1000 nM; IC50 (C. albicans GGPTase; [7]): < 1000 nM
CC(C)C[C@H](NC(=O)[C@H](Cc1cccc2ccccc12)NC(=O)[C@H](CC(=O)O)NC(=O)[C@@H](N)CS)C(=O)O [Compound 5d] (HELM PEPTIDE1{C.D.[O=C([C@H](Cc1cccc2ccccc12)N[*:1])[*:2]].L}$$$$V2.0),–,–,> 1000 nM,> 1000 nM,> 1000 nM,IC50 (C. albicans GGPTase; [5]): > 1000 nM
CC(C)C[C@H](NC(=O)[C@H](Cc1cccc2ccccc12)NC(=O)CCNC(=O)[C@@H](N)CS)C(=O)O [Compound 5g] (HELM PEPTIDE1{C.[bAla].[O=C([C@H](Cc1cccc2ccccc12)N[*:1])[*:2]].L}$$$$V2.0),–,–,–,< 500 nM,< 500 nM,IC50 (C. albicans GGPTase; [6]): < 1000 nM; IC50 (C. albicans GGPTase; [7]): < 1000 nM
"CC(C)C[C@H](NC(=O)[C@H](Cc1cccc2ccccc12)NC(=O)C[C@@H](NC(=O)[C@@H](N)CS)C(N)=O)C(=O)O [Compound 5h] (HELM PEPTIDE1{[O=C([C@H](Cc1cccc2ccccc12)N[*:1])[*:2]].L}|PEPTIDE2{C.[dD].[am]}$PEPTIDE1,PEPTIDE2,1:R1-2:R3$$$V2.0)",–,–,–,< 500 nM,< 500 nM,IC50 (C. albicans GGPTase; [6]): < 1000 nM; IC50 (C. albicans GGPTase; [7]): < 1000 nM
CC(C)C[C@H](NC(=O)[C@H](Cc1cccc2ccccc12)NC(=O)CNC(=O)[C@@H](N)CS)C(=O)O [Compound 5i] (HELM PEPTIDE1{C.G.[O=C([C@H](Cc1cccc2ccccc12)N[*:1])[*:2]].L}$$$$V2.0),–,–,< 500 nM,< 500 nM,< 500 nM,–
CC(C)C[C@H](NC(=O)[C@H](Cc1ccc2ccccc2c1)NC[C@@H](NC[C@@H](N)CS)C(C)C)C(=O)O [Compound 9],–,–,–,< 100 nM,< 100 nM,IC50 (C. albicans GGPTase; [6]): < 1000 nM; IC50 (C. albicans GGPTase; [7]): < 1000 nM; IC50 (C. albicans GGPTase; [8]): < 1000 nM; IC50 (human GGTase; [9]): < 100 nM
CC(C)C[C@H](NC(=O)c1ccc(NC[C@@H](N)CS)cc1-c1ccccc1)C(=O)O [Compound 17],–,–,–,–,–,IC50 (C. albicans GGPTase; [8]): < 10 nM; IC50 (human GGTase; [9]): < 10 nM
CC(C)C[C@@H](C(=O)O)N(C)C(=O)c1ccc(NC[C@@H](N)CS)cc1-c1ccccc1 [Compound 19],–,–,–,–,–,IC50 (C. albicans GGPTase; [8]): < 10 nM; IC50 (human GGTase; [9]): < 10 nM
CC(C)C[C@H](NC(=O)C1(c2ccccc2)CCN(C(=O)[C@@H](N)CS)CC1)C(=O)O [Compound 53a],< 100 nM,< 100 nM,–,–,–,–
N[C@@H](CS)C(=O)N1CCC(C(=O)NCCCCc2ccccc2)(c2ccccc2)CC1 [Compound 53aa],< 100 nM,> 1000 nM,–,–,–,–
N[C@@H](CS)C(=O)N1CCC(C(=O)NCc2ccccc2-c2ccccc2)(c2ccccc2)CC1 [Compound 53b],< 100 nM,< 1000 nM,–,–,–,–
N[C@@H](CS)C(=O)N1CCC(C(=O)NCc2ccccc2)(c2ccccc2)CC1 [Compound 53bb],< 100 nM,> 1000 nM,–,–,–,–
CC(C)CCNC(=O)C1(c2ccccc2)CCN(C(=O)[C@@H](N)CS)CC1 [Compound 53c],< 100 nM,< 100 nM,–,–,–,–
N[C@@H](CS)C(=O)N1CCC(C(=O)NCCc2cccs2)(c2ccccc2)CC1 [Compound 53d],< 500 nM,> 1000 nM,–,–,–,–
CCOC(=O)N1CCC(NC(=O)C2(c3ccccc3)CCN(C(=O)[C@@H](N)CS)CC2)CC1 [Compound 53l],> 1000 nM,> 1000 nM,–,–,–,–

SMILES,IC50 (C. albicans GGPTase; [1]),IC50 (human GGTase; [2]),IC50 (C. albicans GGPTase),IC50 (human GGTase; [3]),IC50 (human GGTase; [4]),also measured
N[C@@H](CS)C(=O)N1CCC(C(=O)NCCc2ccc(S(N)(=O)=O)cc2)(c2ccccc2)CC1 [Compound 53m],> 1000 nM,> 1000 nM,–,–,–,–
N[C@@H](CS)C(=O)N1CCC(C(=O)NC2CCCCC2)(c2ccccc2)CC1 [Compound 53s],< 500 nM,> 1000 nM,–,–,–,–
N[C@@H](CS)C(=O)N1CCC(C(=O)NCC2CCCO2)(c2ccccc2)CC1 (some centres unmarked) [Compound 53t],< 100 nM,> 1000 nM,–,–,–,–
N[C@@H](CS)C(=O)N1CCC(C(=O)NCC(c2ccccc2)c2ccccc2)(c2ccccc2)CC1 [Compound 53y],< 100 nM,< 500 nM,–,–,–,–
N[C@@H](CS)C(=O)N1CCC(C(=O)NCc2ccccc2)CC1 [Compound 59],–,–,> 1000 nM,–,–,IC50 (human GGTase): > 1000 nM
N[C@@H](CS)C(=O)N1CCC(C(=O)N(Cc2ccccc2)c2ccccc2)CC1 [Compound 60],–,–,> 1000 nM,–,–,IC50 (human GGTase): > 1000 nM
N[C@@H](CS)C(=O)N1CCC(C(=O)N(Cc2ccccc2)Cc2ccccc2)CC1 [Compound 61],–,–,> 1000 nM,–,–,IC50 (human GGTase): > 1000 nM
N[C@@H](CS)C(=O)N1CCC(C(=O)N(CCc2ccccc2)Cc2ccccc2)CC1 [Compound 62],–,–,< 200 nM,–,–,IC50 (human GGTase): > 1000 nM
CC1(C(=O)NCc2ccccc2)CCN(C(=O)[C@@H](N)CS)CC1 [Compound 63],–,–,< 500 nM,–,–,IC50 (human GGTase): > 1000 nM
N[C@@H](CS)C(=O)N1CCC(Cc2ccccc2)(C(=O)NCc2ccccc2)CC1 [Compound 64],–,–,< 100 nM,–,–,IC50 (human GGTase): > 1000 nM
CC(C)/C=C1\NC(=O)N(C2(c3ccccc3)CCN(C(=O)C(N)CS)CC2)C1=O (centres unmarked) [Compound 70],–,–,< 50 nM,–,–,IC50 (human GGTase): > 1000 nM
NC[C@H](NC(=O)[C@@H](N)CS)C(=O)NCc1ccc2c(c1)OCO2 [Compound 89d],–,–,–,> 1000 nM,> 1000 nM,IC50 (C. albicans GGPTase; [6]): > 1000 nM; IC50 (C. albicans GGPTase; [7]): > 1000 nM
NC[C@H](NC(=O)[C@@H](N)CS)C(=O)NCC(=O)Nc1ccc2ccccc2c1 [Compound 89e] (HELM PEPTIDE1{C.[NC[C@H](N[*:1])C(=O)[*:2]].G.[c1ccc2cc(N[*:1])ccc2c1]}$$$$V2.0),–,–,–,> 1000 nM,> 1000 nM,IC50 (C. albicans GGPTase; [6]): > 1000 nM; IC50 (C. albicans GGPTase; [7]): > 1000 nM
NC[C@H](NC(=O)[C@@H](N)CS)C(=O)N1CCC(Cc2ccccc2)CC1 [Compound 89f],–,–,–,> 1000 nM,> 1000 nM,IC50 (C. albicans GGPTase; [6]): < 1000 nM; IC50 (C. albicans GGPTase; [7]): < 1000 nM
NC[C@H](NC(=O)[C@@H](N)CS)C(=O)N1CCN(C(c2ccc(F)cc2)c2ccc(F)cc2)CC1 [Compound 89g],–,–,–,> 1000 nM,> 1000 nM,IC50 (C. albicans GGPTase; [6]): < 500 nM; IC50 (C. albicans GGPTase; [7]): < 500 nM
CC(C)C[C@@H](C(=O)O)N(C)C(=O)Cn1c(=O)n(C2CCN(C(=O)[C@@H](N)CS)CC2)c2ccccc21 [Compound 93],> 1000 nM,> 1000 nM,–,–,–,–
CC(C)C[C@H](NC(=O)C1(c2ccccc2)CCN(C(=O)[C@@H](N)CS)CC1)C(=O)N[C@@H](C)C(=O)N[C@@H](C)C(=O)O [Compound 99b] (HELM PEPTIDE1{C.[O=C(C1(c2ccccc2)CCN([*:1])CC1)[*:2]].L.A.A}$$$$V2.0),< 200 nM,> 500 nM,–,–,–,–
